Experimental data reported in patent US20250215039A1, “NUCLEOSIDES FOR TREATING CANCER” (PRIMEFOUR THERAPEUTICS, INC., priority 2022, published 2025).
Like-named read-outs stand apart in the source and are kept apart here.

Columns and labels:
[1] = biological target: human cytidine deaminase (CDA) (Homo sapiens, UniProt P32320); experiment: Metabolism by human cytidine deaminase (CDA), substrate absorbance at 290 nm
Protocol: Transfer 7.2 μl of each of the substrate DMSO stock in step 2 into a 500 μl 96-Well V-bottom Microplate, clear SBS footprint, cat #P-96-450V-C
Add 352.8 μl assay buffer to the wells
For deaminated product compounds mix 4 μl product with 196 μl assay buffer
This was incubated at 37° C. for 1 h. 200 μl of this mixture was transferred into the assay plate to serve as the product control.
Product+buffer: mix 80 ul of the 2.5× intermediate product stocks (from step 3) with 120 ul assay buffer into product control (no enzyme) wells
Incubate the plate alongside the 20 nM CDA enzyme intermediate stock at 37° C. to temperature equilibrate reagents
Add 120 μl of the 20 nM enzyme mix into the Substrate+CDA wells and start reading at 290 nm every 30 s for about 60 min
50 and 200 uM substrate and product
In 100 mM Tris, pH 7.5, 100 mM KCl, 0.8% carryover DMSO
5 min incubation at 37° C.
Absorbance at 290 nm every 30 s at 37° C. for 1 h using FlexStation 3
Convert A290 to concentration of substrate remaining at time t after enzyme addition:
[formula] • where: • St=absorbance reading of: substrate+CDA wells at time t • So=Average absorbance reading of: substrate+buffer wells • Po=Average absorbance reading of: product+buffer wells • [S]t=initial substrate concentration • Use GraphPad to plot [substrate] against time to calculate initial velocity or slope (μMs^−1) i.e. the linear range of each curve • Express rate in s^−1 by dividing initial velocity by the total enzyme concentration.
Plot rate against [substrate] and fit data to standard Michaelis Menten equation to obtain kcat and KM parameters.

[2] = tested on: cancer cell lines; experiment: Cancer cell proliferation activity (CellTiterGlo, 72 h); type: cell-based; settings: for IC50: 72 h, read-out: IC50 cell proliferation
Summary of the method: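 Cells seeded overnight at 37 °C, then dosed with compound at 0.1% final DMSO and incubated 72 h at 37 °C (5% or 10% CO2 by medium).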

Sequence of human cytidine deaminase (CDA) (P32320 whole entry): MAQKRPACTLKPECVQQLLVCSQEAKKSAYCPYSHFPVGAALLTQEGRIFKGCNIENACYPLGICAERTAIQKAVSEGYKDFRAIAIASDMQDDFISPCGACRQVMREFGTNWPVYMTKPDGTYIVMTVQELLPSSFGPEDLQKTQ

Nc1nc(=O)n([C@H]2C[C@H](O)[C@](CO)(CF)O2)cc1F [Cpd. No. 197, 4-amino-5-fluoro-1-((2R,4S,5R)-5-(fluoromethyl)-4-hydroxy-5-(hydroxymethyl)tetrahydrofuran-2-yl)pyrimidin-2(1H)-one]
metabolism (deamination) by human CDA (line graph) ([1]; 12 nM CDA, 50 and 200 uM substrate, 37° C., pH 7.5, figure legends FIG. 4-9): not metabolized | substrate conversion by CDA (Inactive) ([1]; rate of substrate conversion at 200 μM, could not be fitted): Inactive | IC50 ([2]; 5637 (bladder)): 4 nM | IC50 ([2]; CLS439 (bladder)): > 50000 nM | IC50 ([2]; HS729 (muscle)): > 50000 nM | IC50 ([2]; J82 (bladder)): 216 nM | IC50 ([2]; JAR (placenta)): > 50000 nM | IC50 ([2]; MT3 (breast)): 16 nM | IC50 ([2]; PANCI (pancreas)): > 50000 nM | IC50 ([2]; PC3 (prostate)): > 50000 nM | IC50 ([2]; RD (muscle)): 66 nM | IC50 ([2]; T24 (bladder)): 98 nM | IC50 ([2]; Homo sapiens, 22Rv1, 72 h, 22RV1 (prostate)): 84 nM | IC50 ([2]; Homo sapiens, 786-0, 72 h, 786O (kidney)): > 50000 nM | IC50 ([2]; Homo sapiens, A204, 72 h, A204 (muscle)): 716 nM | IC50 ([2]; Homo sapiens, A549, 72 h, A549 (lung)): 75 nM | IC50 ([2]; Homo sapiens, A673, 72 h, A673 (bone)): 110 nM | IC50 ([2]; Homo sapiens, A2780, 72 h, A2780 (ovary)): 213 nM | IC50 ([2]; Homo sapiens, A-375, 72 h, A375 (skin)): 183 nM | IC50 ([2]; Homo sapiens, A-431, 72 h, A431 (skin)): 2 nM | IC50 ([2]; Homo sapiens, ACHN, ACHN (kidney)): 12 nM | IC50 ([2]; Homo sapiens, ASPC1, 72 h, ASPC1 (pancreas)): 11 nM | IC50 ([2]; Homo sapiens, BT-20, 72 h, BT20 (breast)): > 50000 nM | IC50 ([2]; Homo sapiens, BXPC-3, 72 h, BXPC3 (pancreas)): 0.4 nM | IC50 ([2]; Homo sapiens, C-33-A, C33A (endometrial)): 47 nM | IC50 ([2]; Homo sapiens, CAKI-1, 72 h, CAKI1 (kidney)): > 50000 nM | IC50 ([2]; Homo sapiens, COLO 205, 72 h, COLO205 (colon)): 18 nM | IC50 ([2]; Homo sapiens, COLO-678, 72 h, COLO678 (colon)): > 50000 nM | IC50 ([2]; Homo sapiens, Ca-Ski, CASKI (endometrial)): > 50000 nM | IC50 ([2]; Homo sapiens, Caco-2, 72 h, CACO2 (colon)): > 50000 nM | IC50 ([2]; Homo sapiens, Calu-6, 72 h, CALU6 (lung)): 76 nM | IC50 ([2]; Homo sapiens, DLD-1, 72 h, DLD1 (colon)): 8970 nM | IC50 ([2]; Homo sapiens, DU-145, 72 h, DU145 (prostate)): 425 nM | IC50 ([2]; Homo sapiens, EFO-21, 72 h, EFO21 (ovary)): > 50000 nM | IC50 ([2]; Homo sapiens, EJ-28, 72 h, EJ28 (bladder)): 66 nM | IC50 ([2]; Homo sapiens, Granta-519, 72 h, GRANTA-519 (hematological)): 10 nM | IC50 ([2]; Homo sapiens, HCT-15, 72 h, HCT15 (colon)): 1380 nM | IC50 ([2]; Homo sapiens, HCT-116, 72 h, HCT116 (colon)): 1110 nM | IC50 ([2]; Homo sapiens, HEK293, 72 h, HEK293 (kidney)): > 50000 nM | IC50 ([2]; Homo sapiens, HL-60, 72 h, HL-60 (hematological)): 247 nM | IC50 ([2]; Homo sapiens, HT-29, 72 h, HT29 (colon)): 60 nM | IC50 ([2]; Homo sapiens, HT-1080, 72 h, HT1080 (connective tissue)): 46 nM | IC50 ([2]; Homo sapiens, HeLa, HELA (endometrial)): > 50000 nM | IC50 ([2]; Homo sapiens, HepG2, 72 h, HEPG2 (liver)): 89 nM | IC50 ([2]; Homo sapiens, Hs-578T, HS578T (breast)): > 50000 nM | IC50 ([2]; Homo sapiens, IGROV-1, 72 h, IGROV1 (ovary)): 1590 nM | IC50 ([2]; Homo sapiens, IMR-90, 72 h, IMR90 (lung)): > 50000 nM | IC50 ([2]; Homo sapiens, JEG-3, 72 h, JEG3 (placenta)): 37 nM | IC50 ([2]; Homo sapiens, JIMT-1, 72 h, JIMT1 (breast)): > 50000 nM | IC50 ([2]; Homo sapiens, K562, 72 h, K-562 (hematological)): > 50000 nM | IC50 ([2]; Homo sapiens, Kasumi 1, 72 h, KASUMI-1 (hematological)): 76 nM | IC50 ([2]; Homo sapiens, L-363, 72 h, L-363 (hematological)): > 50000 nM | IC50 ([2]; Homo sapiens, LoVo, LOVO (colon)): 6 nM | IC50 ([2]; Homo sapiens, MCF7, 72 h, MCF7 (breast)): 181 nM | IC50 ([2]; Homo sapiens, MDA-MB-231, 72 h, MDAMB231 (breast)): > 50000 nM | IC50 ([2]; Homo sapiens, MDA-MB-435, 72 h, MDAMB435 (skin)): 924 nM | IC50 ([2]; Homo sapiens, MDA-MB-436, 72 h, MDAMB436 (breast)): 41 nM | IC50 ([2]; Homo sapiens, MDA-MB-468, 72 h, MDAMB468 (breast)): > 50000 nM | IC50 ([2]; Homo sapiens, MG-63, 72 h, MG63 (bone)): 361 nM | IC50 ([2]; Homo sapiens, MHH-ES-1, 72 h, MHHES1 (bone)): 2560 nM | IC50 ([2]; Homo sapiens, MIA PaCa-2, 72 h, MIAPACA2 (pancreas)): 904 nM | IC50 ([2]; Homo sapiens, MINO, MINO (hematological)): 2 nM | IC50 ([2]; Homo sapiens, MV4-11, 72 h, MV4-11 (hematological)): 44 nM | IC50 ([2]; Homo sapiens, NCI-H23, 72 h, NCI-H23 (lung)): 334 nM | IC50 ([2]; Homo sapiens, NCI-H82, 72 h, NCIH82 (lung)): 87 nM | IC50 ([2]; Homo sapiens, NCI-H292, 72 h, NCIH292 (lung)): 114 nM | IC50 ([2]; Homo sapiens, NCI-H460, 72 h, NCIH460 (lung)): 61 nM | IC50 ([2]; Homo sapiens, OVCAR-3, 72 h, OVCAR3 (ovary)): > 50000 nM | IC50 ([2]; Homo sapiens, OVCAR-4, 72 h, OVCAR4 (ovary)): > 50000 nM | IC50 ([2]; Homo sapiens, PLC-PRF-5, 72 h, PLCPRF5 (liver)): > 50000 nM | IC50 ([2]; Homo sapiens, Panc1005, 72 h, PANC1005 (pancreas)): > 50000 nM | IC50 ([2]; Homo sapiens, Ramos, RAMOS (hematological)): 292 nM | IC50 ([2]; Homo sapiens, SAOS-2, 72 h, SAOS2 (bone)): 6 nM | IC50 ([2]; Homo sapiens, SF-268, 72 h, SF268 (brain)): 187 nM | IC50 ([2]; Homo sapiens, SF-295, 72 h, SF295 (brain)): > 50000 nM | IC50 ([2]; Homo sapiens, SK-BR-3, 72 h, SKBR3 (breast)): 5 nM | IC50 ([2]; Homo sapiens, SK-HEP1, 72 h, SKHEP1 (liver)): 1320 nM | IC50 ([2]; Homo sapiens, SK-LMS-1, 72 h, SKLMS1 (uterus)): 298 nM | IC50 ([2]; Homo sapiens, SK-MEL-5, 72 h, SKMEL5 (skin; SKMELS [sic] in Table 9E)): > 50000 nM | IC50 ([2]; Homo sapiens, SK-MEL-28, 72 h, SKMEL28 (skin)): > 50000 nM | IC50 ([2]; Homo sapiens, SK-N-AS, SKNAS (brain)): > 50000 nM | IC50 ([2]; Homo sapiens, SK-N-SH, SKNSH (brain)): > 50000 nM | IC50 ([2]; Homo sapiens, SK-OV-3, 72 h, SKOV3 (ovary)): 71 nM | IC50 ([2]; Homo sapiens, SNB-75, 72 h, SNB75 (brain)): > 50000 nM | IC50 ([2]; Homo sapiens, SU-DHL10, 72 h, SU-DHL-10 (hematological)): 1160 nM | IC50 ([2]; Homo sapiens, SU-DHL-6, 72 h, SU-DHL-6 (hematological)): 143 nM | IC50 ([2]; Homo sapiens, SW-620, 72 h, SW620 (colon)): 82 nM | IC50 ([2]; Homo sapiens, TE-671, 72 h, TE671 (muscle)): 82 nM | IC50 ([2]; Homo sapiens, THP-1, 72 h, THP-1 (hematological)): 131 nM | IC50 ([2]; Homo sapiens, U2OS, U20S (bone; U2OS in Table 9E)): > 50000 nM | IC50 ([2]; Homo sapiens, U-87 MG, U87MG (brain)): > 50000 nM | IC50 ([2]; Homo sapiens, UMUC3, 72 h, UMUC3 (bladder)): 228 nM | IC50 ([2]; Homo sapiens, UO-31, 72 h, UO31 (kidney)): > 50000 nM | IC50 ([2]; Homo sapiens, WSU-NHL, WSU-NHL (hematological)): 448 nM | IC50 ([2]; NCI-H358M, NCIH358M (lung)): 19 nM | IC50 ([2]; PBMC, PBMC (hematological)): 3020 nM | IC50 ([2]; RD-ES, RDES (bone)): 10400 nM | cytotoxicity against a panel of cell lines (waterfall plot) ([2]; panel of cancer and non-cancer cell lines, figure legends FIG. 1-3): selectively cytotoxic in cancer cell lines with high DDR activity
